pEC50: −log10 of the molar value. Entries after “also recorded” stand apart in the source; their conditions may differ. Where two headings read alike, the source gives them in different places.
Key:
PTPN2 = target: T1, PTPN2 (Homo sapiens, UniProt P17706); assay: Western blot, PTPN2 degradation in HEK293T cells; assay type: cell-based; conditions: 48 hours incubation; for DC50 / Dmax: Western blot; for DC50: read-out: Relative DC50, PTPN2 degradation; for Dmax: HEK-293T
T1 construct: endogenous in cells; host or cells: HEK293T
T1 sequence (P17706 1-415): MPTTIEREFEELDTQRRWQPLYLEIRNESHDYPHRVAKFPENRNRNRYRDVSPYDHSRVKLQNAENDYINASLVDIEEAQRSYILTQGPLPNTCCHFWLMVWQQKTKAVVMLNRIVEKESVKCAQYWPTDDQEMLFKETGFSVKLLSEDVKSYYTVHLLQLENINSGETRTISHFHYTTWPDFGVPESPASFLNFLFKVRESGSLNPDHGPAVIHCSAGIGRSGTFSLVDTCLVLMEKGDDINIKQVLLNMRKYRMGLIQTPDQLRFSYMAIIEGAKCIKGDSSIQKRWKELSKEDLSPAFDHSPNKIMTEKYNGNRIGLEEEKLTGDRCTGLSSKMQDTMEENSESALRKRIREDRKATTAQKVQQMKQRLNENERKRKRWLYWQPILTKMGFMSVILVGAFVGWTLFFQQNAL
Description: (§1) 1. Sample preparation: 150,000 HEK293T cells per well were seeded in a 24-well plate and incubated overnight. Compounds were added to the wells at the final concentrations of 20 μM, 10 μM, 5 μM, 2 μM, 1 μM, 500 nM, 200 nM, 100 nM, 50 nM, 20 nM, 5 nM, 0 nM (solvent control) and medium (negative control) and incubated for 48 hours. After incubation, the supernatants were discarded. Cells were washed with pre-chilled PBS once, 40 μL cell lysis buffer were added to lyse the cells and then centrifuged at 14000 g, 4° C. for 20 mins. The supernatant was aspirated and the protein concentration were quantified. 5× loading buffer was added into the samples, and the samples were heated at 70° C. for 10 minutes.
(§2) 2. Experimental procedure: 20 μg protein were added to each well then start SDS-PAGE electrophoresis. The protein was transferred to the PVDF membrane.
(§3) The blotting current was set at 250 mA for 90 min. 5% BSA in TBST was used to block the membrane for 1 h at room temperature. After diluting the primary antibody according to Table 2, the membrane was hybridized overnight at 4° C. The membrane was washed three times with TBST, 7 minutes each time. After diluting the secondary antibody, the membrane was incubated for 2 h at room temperature. The membrane was washed three times with TBST for 7 min each time.
(§4) ImageJ software was used to detect the gray value of each band and enter it into the following formula as the degradation rate (D): […]
(§5) D is the degradation rate, V refers to the gray value: target refers to the name of the protein targeted for degradation, housekeeping refers to housekeeping proteins such as GAPDH and beta-actin: DMSO refers to the solvent DMSO added only to dissolve PROTAC and incubate cells: Lane X refers to a lane with a specific incubation concentration; Lane Y refers to a lane where only the solvent DMSO is added to incubate cells.
(§6) A graph was drawn with degradation rate as the vertical axis and drug incubation concentration as the horizontal axis, and DC50 and Dmax were read and recorded in Tables 3, 4, 5 and 6.

[1] = PK study in SD rats after a single intravenous administration; assay type: in vivo; conditions: for clearance / concentration at 0.083 h / concentration at 0.25 h / concentration at 0.5 h / concentration at 1 h / concentration at 2 h / concentration at 4 h / concentration at 8 h / concentration at 10 h / concentration at 24 h / AUC(0-t): Sprague-Dawley (SD), rat, plasma; for AUC(0-t): read-out: AUC0-24 h
Description: A PK study of the compounds after a single intravenous administration.
SD rats were randomly assigned to 5 groups (3 rats/group). Blood samples were collected from animals at 0.083 h, 0.25 h, 0.5 h, 1 h, 2 h, 4 h, 8 h, 10 h and 24 h after administration. Blood samples were collected in an anticoagulant tube containing EDTA-K2. The concentration of compounds in plasma were determined by an LC-MS/MS method with the lower limit of quantitation (LLOQ) of 0.50 ng/mL. Pharmacokinetic parameters were calculated with WinNonlin to assess the PK characteristics in SD rats. The formulation prescription was DMSO: Cremophor EL: 5% Glucose Solution=5:5:90 (v/v/v).

PTP1B = target: T2, PTP1B (Homo sapiens, UniProt P18031); assay: Western blot, PTP1B degradation in HEK293T cells; assay type: cell-based; conditions: 48 hours incubation; for DC50 / Dmax: Western blot; for DC50: read-out: Relative DC50, PTP1B degradation; for Dmax: HEK-293T
T2 construct: endogenous in cells; host or cells: HEK293T
T2 sequence (P18031 1-435): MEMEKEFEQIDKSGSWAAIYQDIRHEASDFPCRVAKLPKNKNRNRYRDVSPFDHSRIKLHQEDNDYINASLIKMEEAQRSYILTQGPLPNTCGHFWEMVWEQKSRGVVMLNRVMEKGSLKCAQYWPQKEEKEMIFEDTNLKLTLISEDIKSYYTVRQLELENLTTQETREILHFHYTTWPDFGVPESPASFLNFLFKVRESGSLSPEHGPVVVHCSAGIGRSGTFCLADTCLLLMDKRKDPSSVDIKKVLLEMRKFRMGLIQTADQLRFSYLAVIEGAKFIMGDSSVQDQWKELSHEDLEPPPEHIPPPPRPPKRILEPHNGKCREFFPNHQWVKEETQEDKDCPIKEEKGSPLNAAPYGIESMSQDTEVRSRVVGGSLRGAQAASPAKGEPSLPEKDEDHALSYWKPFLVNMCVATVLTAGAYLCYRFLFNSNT
Description: as §1, §2, §3, §4, §5, §6

[2] = test system: HEK293/Luc (IFN-γ) stable cell line; assay: Luciferase reporter assay in HEK293/Luc (IFN-γ) cells; assay type: cell-based; conditions: Homo sapiens; stimulated with 30 ng/mL IFN-γ in HEK293/Luc; 6 h incubation; read-out: Absolute EC50
Description: HEK293/Luc (IFN-γ) stable cell line (Cat: M00953) and Fire-Lumi luciferase detection kit (Cat: L00877C) were purchased from GenScript. The complete culture medium formulation was DMEM containing 10% FBS and 1% Penicillin-Streptomycin. For EC50 detection, 60 μL HEK293/Luc (IFN-γ) cells were seeded at the density of 10,000 cells/well into 384 well assay plates (761601, NEST) using the medium above mentioned.
The working solutions for each sample were prepared triplicated at 9 gradient doses, starting from 10 µM and diluted by 4 folds. The IFN-γ working solution was prepared at 0.8 ng/mL concentration. The sample working solution and IFN-γ working solution were mixed at the volume of 1:1, and then 20 μl/well of the aliquot was added into the 384-well plate and cells were incubated at 37° C./5% CO2 for 6 h. 40 μL/well prewarmed detection reagents were added into the cells. Luminescent signals could be determined after 5-minute incubation. The data were plotted and four-parameter fitting was performed on the test data to obtain the relative EC50 value of the curve by Prism GraphPad 9 software (Table 1).

Row | SMILES | DC50 (PTPN2) [nM] | Dmax (PTPN2) [%] | clearance ([1]; 1 mg/kg) [mL/min/kg] | concentration at 0.083 h ([1]; 1 mg/kg) [ng/mL] | concentration at 0.25 h ([1]; 1 mg/kg) [ng/mL] | concentration at 0.5 h ([1]; 1 mg/kg) [ng/mL] | concentration at 1 h ([1]; 1 mg/kg) [ng/mL] | concentration at 2 h ([1]; 1 mg/kg) [ng/mL] | concentration at 4 h ([1]; 1 mg/kg) [ng/mL] | concentration at 8 h ([1]; 1 mg/kg) [ng/mL] | concentration at 10 h ([1]; 1 mg/kg) [ng/mL] | concentration at 24 h ([1]; 1 mg/kg, 24 h) [ng/mL] | AUC(0-t) ([1]; 1 mg/kg) [ng·h/mL] | also measured
1 | CC1(C)CC(Nc2cccc(-c3sc(C(=O)O)c(OCC(=O)O)c3Cl)c2)CCN1S(=O)(=O)Cc1ccc2cnc(N3CCC(c4ccc5c6c(cccc46)C(=O)N5C4CCC(=O)NC4=O)CC3)nc2c1 (stereo not shown) [Compound 16] | 38.8 | 96.5 |  |  |  |  |  |  |  |  |  |  |  | 
2 | CC1(C)CC(Nc2cccc(-c3sc(C(=O)O)c(OCC(=O)O)c3Cl)c2)CCN1S(=O)(=O)Cc1ccc2oc(N3CCC(c4ccc5c6c(cccc46)C(=O)N5C4CCC(=O)NC4=O)CC3)nc2c1 (stereo not shown) [Compound 21] | 10.1 | 100 | 0.661 | 18100 | 14600 | 9660 | 5980 | 2890 | 1000 | 372 | 321 | 98.6 | 27200 | Effect on PTP1B compared with PTPN2 at the same concentration (selectivity, FIG. 1), in words (PTP1B): the degradation ability of PTPN2 is better than that of PTP1B; also recorded: much weaker than that of PTPN2; DC50 (PTP1B): 861 nM; Dmax (PTP1B): 97.3%; pEC50 [2]: 7.32; Degradation ability on PTPN2 protein at different concentrations (FIG. 1), in words (PTPN2; 5 nM to 20 μM): good degradation ability on PTPN2 protein in a dose-dependent manner; also recorded: completely degraded at high concentrations
3 | O=C(O)COc1c(C(=O)O)sc(-c2cccc(NC3CCN(S(=O)(=O)Cc4ccc5oc(N6CCC(c7ccc8c9c(cccc79)C(=O)N8C7CCC(=O)NC7=O)CC6)nc5c4)CC3)c2)c1Cl (stereo not shown) [Compound 23] |  |  | 0.684 | 21700 | 17900 | 12600 | 7110 | 2420 | 525 | 110 | 95.1 | 39.6 | 24700 | 
4 | O=C(O)COc1c(C(=O)O)sc(-c2cccc(NC3CCN(S(=O)(=O)Cc4ccc5oc(N6CCC(c7ccc8c9c(cccc79)C(=O)N8C7CCC(=O)NC7=O)CC6)nc5c4)C4(CC4)C3)c2)c1Cl (stereo not shown) [Compound 57] | 51.2 | 97.2 | 0.351 | 21900 | 17000 | 13200 | 8730 | 5430 | 2870 | 1090 | 809 | 206 | 48700 | 
5 | CC1(C)CC(Nc2cccc(-c3sc(C(=O)O)c(OC(F)(F)C(=O)O)c3Cl)c2)CCN1S(=O)(=O)Cc1ccc2oc(N3CCC(c4ccc5c6c(cccc46)C(=O)N5C4CCC(=O)NC4=O)CC3)nc2c1 (stereo not shown) [Compound 78] | 55.2 | 100 |  |  |  |  |  |  |  |  |  |  |  | 
6 | [2H]C([2H])(c1ccc2oc(N3CCC(c4ccc5c6c(cccc46)C(=O)N5C4CCC(=O)NC4=O)CC3)nc2c1)S(=O)(=O)N1CCC(Nc2cccc(-c3sc(C(=O)O)c(OCC(=O)O)c3Cl)c2)CC1(C)C (stereo not shown) [Compound 151] |  |  | 0.568 | 19400 | 14900 | 11500 | 7920 | 3810 | 1050 | 345 | 279 | 57.5 | 29700 | 
7 | CC1(C)C[C@@H](Nc2cccc(-c3sc(C(=O)O)c(OCC(=O)O)c3Cl)c2)CCN1S(=O)(=O)Cc1cccc(NC(=O)N2CCC(c3ccc4c5c(cccc35)C(=O)N4[C@H]3CCC(=O)NC3=O)CC2)c1 [Ref. Cpd, reference compound] | 29.3 | 96.3 |  |  |  |  |  |  |  |  |  |  |  | Plasma concentration ([1]; 2 mg/kg, 24 h, LLOQ 0.50 ng/mL): BLOQ; clearance ([1]; 2 mg/kg): 4.46 mL/min/kg; concentration at 0.083 h ([1]; 2 mg/kg): 22700 ng/mL; concentration at 0.25 h ([1]; 2 mg/kg): 8300 ng/mL; concentration at 0.5 h ([1]; 2 mg/kg): 1290 ng/mL; concentration at 1 h ([1]; 2 mg/kg): 318 ng/mL; concentration at 2 h ([1]; 2 mg/kg): 148 ng/mL; concentration at 4 h ([1]; 2 mg/kg): 79.4 ng/mL; concentration at 8 h ([1]; 2 mg/kg): 29.3 ng/mL; concentration at 10 h ([1]; 2 mg/kg): 18.9 ng/mL; AUC(0-t) ([1]; 2 mg/kg): 7490 ng·h/mL; DC50 (PTP1B): 271 nM; Dmax (PTP1B): 96.8%; pEC50 [2]: 6.33

— US12297193B2, “PTPN2/PTP1B degrader and therapeutic method thereof” (NORTHRIDGE HEALTH GROUP (HONG KONG) CO., LIMITED, priority 2023, dated 2025)
